We go through three molecules from publication PMC6437697 (Journal of Medicinal Chemistry, 2019).

Assay in all cases: KINOMEscan
What all share (assay type): binding
Holding throughout (settings): read-out: % control activity remaining

One test deals with T1, GSK3A (Homo sapiens, UniProt P49840).
T1 construct: purchased Eurofins DiscoverX KINOMEscan

A further test has as its target T2, PIK3CA(I800L) (Homo sapiens, UniProt P42336, I800L).
T2 construct: purchased Eurofins DiscoverX KINOMEscan

The target of a further test is T3, CSK (Homo sapiens, UniProt P41240).
T3 construct: purchased Eurofins DiscoverX KINOMEscan
T3 sequence (P41240 whole entry): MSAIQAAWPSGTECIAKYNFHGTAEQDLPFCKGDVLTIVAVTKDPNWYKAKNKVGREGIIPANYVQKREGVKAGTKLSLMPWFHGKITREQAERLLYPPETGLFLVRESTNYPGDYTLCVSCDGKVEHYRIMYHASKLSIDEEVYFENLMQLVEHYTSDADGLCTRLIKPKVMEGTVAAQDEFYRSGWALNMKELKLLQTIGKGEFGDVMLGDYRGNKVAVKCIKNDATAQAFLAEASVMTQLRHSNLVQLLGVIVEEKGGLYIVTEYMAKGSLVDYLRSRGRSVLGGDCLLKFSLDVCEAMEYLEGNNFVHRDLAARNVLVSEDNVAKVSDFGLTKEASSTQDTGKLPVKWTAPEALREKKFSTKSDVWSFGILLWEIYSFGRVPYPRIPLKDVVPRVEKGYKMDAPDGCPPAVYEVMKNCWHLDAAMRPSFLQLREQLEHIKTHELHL

In a further test the target is T4, CHEK1 (Homo sapiens, UniProt O14757).
T4 construct: purchased Eurofins DiscoverX KINOMEscan
T4 sequence (O14757 1-476): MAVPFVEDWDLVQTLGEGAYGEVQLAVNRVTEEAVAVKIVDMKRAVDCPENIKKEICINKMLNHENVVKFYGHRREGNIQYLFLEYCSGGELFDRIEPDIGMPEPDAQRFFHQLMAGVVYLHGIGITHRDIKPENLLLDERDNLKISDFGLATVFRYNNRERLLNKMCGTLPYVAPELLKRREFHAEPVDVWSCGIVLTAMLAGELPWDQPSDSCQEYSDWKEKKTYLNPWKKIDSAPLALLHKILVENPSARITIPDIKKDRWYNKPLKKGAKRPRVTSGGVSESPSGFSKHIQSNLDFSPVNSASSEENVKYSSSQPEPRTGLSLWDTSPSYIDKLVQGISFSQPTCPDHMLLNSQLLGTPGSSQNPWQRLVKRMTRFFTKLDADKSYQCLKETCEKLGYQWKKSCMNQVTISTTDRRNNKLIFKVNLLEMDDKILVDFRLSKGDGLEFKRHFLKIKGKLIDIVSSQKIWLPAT

A further test concerns the target T5, DRAK1 (Homo sapiens, UniProt Q9UEE5).
T5 construct: purchased Eurofins DiscoverX KINOMEscan
T5 sequence (Q9UEE5 1-414): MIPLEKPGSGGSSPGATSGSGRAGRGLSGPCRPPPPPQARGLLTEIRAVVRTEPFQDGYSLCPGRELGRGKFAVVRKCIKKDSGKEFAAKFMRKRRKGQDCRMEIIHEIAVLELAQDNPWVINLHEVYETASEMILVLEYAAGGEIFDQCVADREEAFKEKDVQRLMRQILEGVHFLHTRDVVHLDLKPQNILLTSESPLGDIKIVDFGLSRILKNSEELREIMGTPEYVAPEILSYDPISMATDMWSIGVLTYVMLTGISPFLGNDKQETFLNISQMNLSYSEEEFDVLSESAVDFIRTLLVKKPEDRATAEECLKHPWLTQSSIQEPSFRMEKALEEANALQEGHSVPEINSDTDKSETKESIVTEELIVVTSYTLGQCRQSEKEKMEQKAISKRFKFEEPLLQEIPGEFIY

The next test deals with T6, DMPK2 (Homo sapiens, UniProt Q6DT37).
T6 construct: purchased Eurofins DiscoverX KINOMEscan
T6 sequence (Q6DT37 whole entry): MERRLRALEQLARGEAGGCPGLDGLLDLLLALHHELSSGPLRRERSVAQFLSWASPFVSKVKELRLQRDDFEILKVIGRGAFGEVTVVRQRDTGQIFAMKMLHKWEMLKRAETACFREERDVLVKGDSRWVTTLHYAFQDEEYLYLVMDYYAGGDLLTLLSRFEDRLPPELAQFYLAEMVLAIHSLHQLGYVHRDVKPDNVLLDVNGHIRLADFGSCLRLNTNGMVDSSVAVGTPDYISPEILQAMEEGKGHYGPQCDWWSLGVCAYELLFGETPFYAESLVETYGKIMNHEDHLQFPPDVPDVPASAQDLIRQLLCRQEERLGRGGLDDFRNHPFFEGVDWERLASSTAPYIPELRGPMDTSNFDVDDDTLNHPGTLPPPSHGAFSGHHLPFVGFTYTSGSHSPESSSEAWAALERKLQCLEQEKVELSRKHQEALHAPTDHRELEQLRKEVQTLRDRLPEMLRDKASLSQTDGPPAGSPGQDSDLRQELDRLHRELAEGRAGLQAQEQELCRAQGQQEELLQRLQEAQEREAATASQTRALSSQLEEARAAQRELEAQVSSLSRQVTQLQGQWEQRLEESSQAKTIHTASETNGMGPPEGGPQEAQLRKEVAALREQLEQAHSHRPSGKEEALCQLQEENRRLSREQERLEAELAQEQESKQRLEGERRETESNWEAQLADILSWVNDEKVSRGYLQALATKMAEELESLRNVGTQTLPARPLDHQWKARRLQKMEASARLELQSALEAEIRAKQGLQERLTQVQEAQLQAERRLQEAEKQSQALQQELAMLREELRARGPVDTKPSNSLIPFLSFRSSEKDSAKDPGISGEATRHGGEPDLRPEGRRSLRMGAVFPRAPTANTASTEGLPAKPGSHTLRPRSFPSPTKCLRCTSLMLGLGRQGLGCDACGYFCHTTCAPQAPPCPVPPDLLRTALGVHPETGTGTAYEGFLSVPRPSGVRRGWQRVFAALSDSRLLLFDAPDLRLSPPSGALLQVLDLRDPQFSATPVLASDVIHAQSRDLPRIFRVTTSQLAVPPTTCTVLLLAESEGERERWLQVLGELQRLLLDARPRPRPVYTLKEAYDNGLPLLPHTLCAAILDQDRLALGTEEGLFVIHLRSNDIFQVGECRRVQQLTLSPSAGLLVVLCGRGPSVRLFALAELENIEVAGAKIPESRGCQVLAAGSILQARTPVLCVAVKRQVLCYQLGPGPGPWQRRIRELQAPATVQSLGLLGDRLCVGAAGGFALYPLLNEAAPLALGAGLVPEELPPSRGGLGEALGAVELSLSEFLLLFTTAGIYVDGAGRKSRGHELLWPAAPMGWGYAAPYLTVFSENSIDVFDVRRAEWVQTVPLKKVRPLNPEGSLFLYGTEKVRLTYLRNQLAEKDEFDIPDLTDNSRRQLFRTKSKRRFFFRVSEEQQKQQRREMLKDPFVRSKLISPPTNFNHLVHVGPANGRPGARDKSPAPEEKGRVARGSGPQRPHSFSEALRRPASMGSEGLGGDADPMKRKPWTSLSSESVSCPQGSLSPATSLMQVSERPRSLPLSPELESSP

In a further test the target is T7, ZAP70 (Homo sapiens, UniProt P43403).
T7 construct: purchased Eurofins DiscoverX KINOMEscan
T7 sequence (P43403 1-619): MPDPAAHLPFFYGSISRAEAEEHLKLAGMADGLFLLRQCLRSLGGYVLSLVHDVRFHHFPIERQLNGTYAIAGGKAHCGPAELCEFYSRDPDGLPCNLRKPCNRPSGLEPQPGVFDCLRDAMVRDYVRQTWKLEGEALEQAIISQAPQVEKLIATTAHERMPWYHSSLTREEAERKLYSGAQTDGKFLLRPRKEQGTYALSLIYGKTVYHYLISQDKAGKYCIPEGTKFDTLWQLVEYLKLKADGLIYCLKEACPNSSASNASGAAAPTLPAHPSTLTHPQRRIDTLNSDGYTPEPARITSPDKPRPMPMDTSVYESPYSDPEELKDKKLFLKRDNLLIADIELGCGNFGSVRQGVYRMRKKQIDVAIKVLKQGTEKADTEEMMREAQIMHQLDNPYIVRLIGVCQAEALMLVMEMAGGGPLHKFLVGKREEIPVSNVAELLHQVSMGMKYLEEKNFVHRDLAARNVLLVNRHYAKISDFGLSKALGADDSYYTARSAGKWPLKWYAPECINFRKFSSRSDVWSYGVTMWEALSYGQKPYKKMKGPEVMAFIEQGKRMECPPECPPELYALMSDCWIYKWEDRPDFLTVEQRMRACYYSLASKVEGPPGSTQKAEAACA

A further test has as its target T8, EPHB2 (Homo sapiens, UniProt P29323).
T8 construct: purchased Eurofins DiscoverX KINOMEscan
T8 sequence (P29323 19-1055): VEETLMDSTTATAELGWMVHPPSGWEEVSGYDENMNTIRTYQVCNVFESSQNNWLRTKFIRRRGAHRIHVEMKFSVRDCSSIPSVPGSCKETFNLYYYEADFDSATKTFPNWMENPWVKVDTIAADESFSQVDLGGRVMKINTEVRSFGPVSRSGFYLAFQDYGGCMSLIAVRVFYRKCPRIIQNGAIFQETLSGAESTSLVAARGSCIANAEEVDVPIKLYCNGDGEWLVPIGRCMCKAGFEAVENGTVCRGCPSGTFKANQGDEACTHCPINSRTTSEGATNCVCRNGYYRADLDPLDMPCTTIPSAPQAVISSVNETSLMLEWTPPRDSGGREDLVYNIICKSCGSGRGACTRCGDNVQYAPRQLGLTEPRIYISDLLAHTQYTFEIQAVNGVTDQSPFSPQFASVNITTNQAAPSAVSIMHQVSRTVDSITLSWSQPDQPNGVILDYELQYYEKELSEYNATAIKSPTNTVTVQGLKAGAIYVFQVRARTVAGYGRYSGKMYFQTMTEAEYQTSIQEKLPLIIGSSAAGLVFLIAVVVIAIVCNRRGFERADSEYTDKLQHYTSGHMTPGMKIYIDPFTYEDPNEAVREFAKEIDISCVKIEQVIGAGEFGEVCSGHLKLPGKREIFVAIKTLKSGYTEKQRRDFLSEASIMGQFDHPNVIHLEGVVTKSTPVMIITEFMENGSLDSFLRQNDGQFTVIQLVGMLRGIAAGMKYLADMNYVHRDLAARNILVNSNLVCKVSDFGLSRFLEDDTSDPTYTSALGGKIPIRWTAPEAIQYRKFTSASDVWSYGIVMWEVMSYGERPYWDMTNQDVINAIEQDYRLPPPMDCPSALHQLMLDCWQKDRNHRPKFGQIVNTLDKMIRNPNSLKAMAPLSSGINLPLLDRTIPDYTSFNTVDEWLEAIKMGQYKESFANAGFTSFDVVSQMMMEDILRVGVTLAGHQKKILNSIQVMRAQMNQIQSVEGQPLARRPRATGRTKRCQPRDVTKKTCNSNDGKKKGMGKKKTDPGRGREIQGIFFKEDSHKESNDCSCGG

In a further test the target is T9, FGFR3 (Homo sapiens, UniProt P22607).
T9 construct: purchased Eurofins DiscoverX KINOMEscan
T9 sequence (P22607 23-806): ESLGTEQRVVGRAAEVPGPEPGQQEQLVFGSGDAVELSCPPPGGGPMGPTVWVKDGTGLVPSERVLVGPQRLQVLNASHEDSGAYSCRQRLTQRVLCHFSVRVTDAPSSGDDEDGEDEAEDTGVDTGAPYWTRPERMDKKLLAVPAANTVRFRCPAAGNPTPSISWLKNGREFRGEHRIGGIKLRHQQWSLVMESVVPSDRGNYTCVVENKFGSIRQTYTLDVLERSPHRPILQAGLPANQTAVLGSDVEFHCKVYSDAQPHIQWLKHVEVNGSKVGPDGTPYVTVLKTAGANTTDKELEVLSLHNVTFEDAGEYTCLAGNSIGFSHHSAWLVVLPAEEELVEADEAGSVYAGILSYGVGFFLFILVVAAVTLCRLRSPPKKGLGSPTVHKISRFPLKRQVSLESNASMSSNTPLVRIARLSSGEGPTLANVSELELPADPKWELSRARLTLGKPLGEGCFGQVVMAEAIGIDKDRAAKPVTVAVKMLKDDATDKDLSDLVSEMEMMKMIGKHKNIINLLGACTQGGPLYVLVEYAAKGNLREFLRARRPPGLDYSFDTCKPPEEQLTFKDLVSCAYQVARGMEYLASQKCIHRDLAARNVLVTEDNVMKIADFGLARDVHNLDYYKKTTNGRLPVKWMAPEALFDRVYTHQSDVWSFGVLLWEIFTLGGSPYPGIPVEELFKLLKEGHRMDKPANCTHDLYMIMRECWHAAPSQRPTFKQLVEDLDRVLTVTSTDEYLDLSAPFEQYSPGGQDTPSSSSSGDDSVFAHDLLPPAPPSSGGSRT

In a further test the target is T10, MINK (Homo sapiens, UniProt Q8N4C8).
T10 construct: purchased Eurofins DiscoverX KINOMEscan
T10 sequence (Q8N4C8 whole entry): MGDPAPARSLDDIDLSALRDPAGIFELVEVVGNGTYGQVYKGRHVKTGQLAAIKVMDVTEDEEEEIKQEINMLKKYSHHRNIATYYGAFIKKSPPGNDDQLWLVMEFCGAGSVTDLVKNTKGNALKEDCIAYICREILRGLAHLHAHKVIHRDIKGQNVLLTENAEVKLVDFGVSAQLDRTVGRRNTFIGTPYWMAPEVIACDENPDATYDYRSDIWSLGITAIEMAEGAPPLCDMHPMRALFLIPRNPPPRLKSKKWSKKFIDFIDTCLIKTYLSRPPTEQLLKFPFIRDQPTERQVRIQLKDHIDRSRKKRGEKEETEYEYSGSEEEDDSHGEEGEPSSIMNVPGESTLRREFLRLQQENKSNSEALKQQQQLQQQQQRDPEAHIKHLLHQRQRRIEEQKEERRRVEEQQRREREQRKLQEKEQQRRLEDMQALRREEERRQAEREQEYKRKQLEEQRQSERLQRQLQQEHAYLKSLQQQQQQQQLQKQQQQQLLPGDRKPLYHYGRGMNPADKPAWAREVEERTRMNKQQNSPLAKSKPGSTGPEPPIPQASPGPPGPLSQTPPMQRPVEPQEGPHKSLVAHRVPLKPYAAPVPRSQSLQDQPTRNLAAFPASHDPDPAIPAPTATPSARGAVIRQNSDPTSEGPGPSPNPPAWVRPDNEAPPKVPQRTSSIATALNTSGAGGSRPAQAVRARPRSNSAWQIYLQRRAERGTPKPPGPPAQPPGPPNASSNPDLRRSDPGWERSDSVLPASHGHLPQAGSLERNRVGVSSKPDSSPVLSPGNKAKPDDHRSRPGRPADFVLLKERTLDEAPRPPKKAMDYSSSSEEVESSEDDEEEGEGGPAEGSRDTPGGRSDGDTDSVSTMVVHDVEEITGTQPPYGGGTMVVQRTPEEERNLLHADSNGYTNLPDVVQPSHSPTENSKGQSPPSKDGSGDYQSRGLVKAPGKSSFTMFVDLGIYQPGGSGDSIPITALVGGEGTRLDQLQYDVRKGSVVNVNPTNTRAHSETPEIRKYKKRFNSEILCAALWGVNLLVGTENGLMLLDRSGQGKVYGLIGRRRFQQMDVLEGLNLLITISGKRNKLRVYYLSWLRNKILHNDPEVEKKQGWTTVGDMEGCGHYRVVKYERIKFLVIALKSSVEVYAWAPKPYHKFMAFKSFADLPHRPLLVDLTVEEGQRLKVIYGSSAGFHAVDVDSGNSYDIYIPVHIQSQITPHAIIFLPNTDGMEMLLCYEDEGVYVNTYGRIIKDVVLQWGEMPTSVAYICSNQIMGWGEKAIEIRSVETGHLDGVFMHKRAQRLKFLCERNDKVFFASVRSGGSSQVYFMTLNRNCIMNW

T1 sequence (P49840 whole entry): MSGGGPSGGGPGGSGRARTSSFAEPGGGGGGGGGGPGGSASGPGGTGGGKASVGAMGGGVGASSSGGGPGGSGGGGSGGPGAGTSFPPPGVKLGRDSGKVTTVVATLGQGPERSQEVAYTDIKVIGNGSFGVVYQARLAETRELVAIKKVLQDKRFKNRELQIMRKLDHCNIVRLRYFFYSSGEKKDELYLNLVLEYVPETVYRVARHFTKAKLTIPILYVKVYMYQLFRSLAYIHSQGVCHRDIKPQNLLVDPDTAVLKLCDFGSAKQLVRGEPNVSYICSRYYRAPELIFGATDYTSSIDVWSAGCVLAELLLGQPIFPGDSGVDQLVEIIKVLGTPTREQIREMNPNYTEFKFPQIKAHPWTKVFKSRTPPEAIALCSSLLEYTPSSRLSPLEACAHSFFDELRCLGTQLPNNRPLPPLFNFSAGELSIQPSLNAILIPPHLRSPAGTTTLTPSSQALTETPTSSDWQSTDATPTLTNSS

`Clc1cc(NCC2CC2)c2ncc(-c3ccc4[nH]ncc4c3)n2n1` [compound 2, 6-Chloro-N-(cyclopropylmethyl)-3-(1H-indazol-5-yl)imidazo[1,2-b]pyridazin-8-amine]: the remaining binding at 1 µM on GSK3A came to 93%; on PIK3CA(I800L) it was 83%; at CSK, 100%; on CHEK1, 88%; at DRAK1, 18%; on DMPK2, 62%. Also, the remaining binding at 1 µM is 84% on ZAP70, 83% at EPHB2, 90% at FGFR3 and 72% on MINK.
On to `O=C(CN1CCOCC1)N[C@H]1CC[C@H](Nc2cc(Cl)nn3c(-c4ccc5[nH]ncc5c4)cnc23)CC1` [compound 26], for which the remaining binding at 1 µM is 100% at GSK3A; 88% at PIK3CA(I800L); 94% on CSK; 100% at CHEK1; 20% on DRAK1; 81% at DMPK2. For the same molecule, the remaining binding at 1 µM at ZAP70 came out at 100%; at EPHB2, 94%; at FGFR3, 94%; on MINK, 57%.
`CN1CCC(CNc2cc(Cl)nn3c(-c4cc5nc(Nc6ccccc6)[nH]c5cc4F)cnc23)CC1` [compound 31, 6-Chloro-3-(6-fluoro-2-(phenylamino)-1H-benzo[d]imidazol-5-yl)-N-((1-methylpiperidin-4-yl)methyl)imidazo[1,2-b]pyridazin-8-amine]: the remaining binding at 1 µM on GSK3A came to 84%; on PIK3CA(I800L), 58%; on CSK, 98%; at CHEK1, 100%; at DRAK1, 91%; at DMPK2, 100%. In addition, the remaining binding at 1 µM on ZAP70 amounted to 83%; on EPHB2, 96%; at FGFR3, 91%; on MINK it was 87%.
